This is an account of results in the METLIN SMRT retention time set (Domingo-Almenara et al. 2019).

A short description of the series: gradient 5% acetonitrile 3 min, to 50% in 2 min, to 85% in 15 min, held 3 min, 100 µL/min. Conditions: column: Zorbax Extend-C18 2.1 x 50 mm; eluents: water / acetonitrile, 0.1% formic acid. Summed up: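 Standards, all pure, were combined into mixtures of ~100 molecules and run at 100 μL/min on a Zorbax Extend-C18 column (2.1 × 50 mm, 1.8 μm) with water and acetonitrile, each containing 0.1% formic acid. A coupled quadrupole time-of-flight mass spectrometer operated in positive and negative ionization mode. Retention time values come from computationally picked adduct peaks, each inspected manually.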
As to `COc1ccc(Cl)cc1NC(=O)NC1CCN(c2ccc(F)cc2)C1=O` (stereo unspecified), the RP-LC retention time was found to be 899 s.
`Cn1nccc1-c1cccc(-c2noc(-c3ccc(Cl)cc3)n2)c1` returned an RP-LC retention time of 1250 s.
The compound `COC(=O)c1c(C)c(C(=O)C(C)N(CCC(C)C)C(=O)c2ccccc2Cl)c(C)n1C` (stereo unspecified) yielded an RP-LC retention time of 1130 s.
Compound `O=C(Cc1c[nH]c2ccccc12)NCC1CCN(c2cc(-c3ccncc3)[nH]n2)CC1` came in with an RP-LC retention time of 595 s.
To `CC(=O)N1CCCc2cc(S(=O)(=O)N3CCC(C(=O)NCC4CCCO4)CC3)ccc21` (stereo unspecified) belongs 658 s; to `Cc1cccc(N(C)C(=O)Cn2nc3n(c2=O)CCCC3)c1`, 669 s.
For the compound `Cc1noc([C@@H]2CN(C(=O)c3ccoc3C)C[C@H]2CO)n1`, the RP-LC retention time amounted to 610 s.
On to `O=C(Cn1c(N2CCCCC2)nc2ccccc2c1=O)NCc1ccc(Cl)cc1`, for which the RP-LC retention time worked out at 946 s.
`Cc1ccc(-n2cc3c(c(C(=O)Nc4cccnc4)c2=O)CC(C)(C)CC3=O)cc1` had an RP-LC retention time of 734 s.
To `CC(C)CNc1nnc(-c2nc(C3CC3)no2)c2ccccc12` belongs 657 s.
`CCOC(=O)CNC(=O)N1CCCCCC1c1cccc(C)c1` (stereo unspecified) registered an RP-LC retention time of 931 s.
`O=C(CN1C(=O)S/C(=C\c2ccccc2)C1=O)NCCN1C(=O)CSC1=O` returned an RP-LC retention time of 746 s.
`O=C(NCc1cccs1)C1CCCN(c2nc3ccccc3n(Cc3ccccc3)c2=O)C1` (stereo unspecified) displayed an RP-LC retention time of 1100 s.
`COc1cccc(-n2cc(C(=O)O)c3c2C(c2ccc(OC)c(OC)c2)CC(=O)N3)c1` (stereo unspecified) had an RP-LC retention time of 717 s.
As to `Cc1ccc(-c2nc(NC(=O)Cc3csc(-c4ccccc4)n3)sc2C)cc1`, the RP-LC retention time came out at 1250 s.
On to `O=C(C1CCCC1)N1[C@H]2CC[C@@H]1c1cnc(-c3ccc(F)cc3)nc1C2`, for which the RP-LC retention time stood at 984 s.
As to `CCN(CC)C(=O)c1sc(-c2cn(C(C)C)c3ncccc23)nc1C`, the RP-LC retention time amounted to 902 s.
Regarding `CCOC(=O)C(CC)n1nc2nc(Nc3ccc(C)c(F)c3)cc(C)n2c1=O` (stereo unspecified), the RP-LC retention time amounted to 1200 s.
To `Cc1nn(CC(=O)NCC(C)C)c(=O)c2nc(-c3ccccc3)sc12` belongs 830 s.
The compound `O=C(COc1ccc(F)cc1)N1CCN2CCS(=O)(=O)N(C3CC3)C(=O)C2C1` (stereo unspecified) registered an RP-LC retention time of 773 s.
Regarding `Cc1nc([C@@H]2CN(C(=O)CCc3c(C)n[nH]c3C)C[C@H]2C(N)=O)n[nH]1`, the RP-LC retention time turned out to be 523 s.
Consider `Cc1cc(F)cc2c(=O)c3c([nH]c12)CCN(CC(=O)Nc1cccc(F)c1)C3`, for which the RP-LC retention time came to 620 s.
The compound `CCc1ccc(C2=C(C)C(N3CCC(NC(=O)NC(C)(C)C)CC3)=NS2(=O)=O)cc1` showed an RP-LC retention time of 928 s.
`CCC1CCCCN1C(=O)c1cnc2nc(C)ccc2c1Nc1ccc(F)c(C)c1` (stereo unspecified) returned an RP-LC retention time of 680 s.
As for `COc1ccc(-c2nnc(-c3cc(S(=O)(=O)NC(C)(C)CO)ccc3Cl)o2)cc1`, the RP-LC retention time came out at 837 s.
To `CCc1cccc(NC(=O)Cn2c(CC)nc3c(c2=O)CN(Cc2ccccc2)CC3)c1` belongs 718 s; to `COc1ccc(C(CC(=O)N2CCN(C)CC2)N2Cc3ccccc3C2=O)cc1OC` (stereo unspecified), 609 s; to `COc1cc(C2C(C(=O)N3CCOCC3)=C(C)NC3=C2C(=O)CCC3)ccc1OC(C)=O` (stereo unspecified), 622 s.
With `O=C(Nc1ccc2cn[nH]c2c1)C1(c2ccccc2)CCOCC1`, the RP-LC retention time amounted to 676 s.
Turning to `O=C(C1CCN(c2cnn(Cc3ccccc3)c(=O)c2)CC1)N1CCOCC1`, the RP-LC retention time was 661 s.
To `CC(=O)c1ccc(N=NC(C(N)=O)C2NC(C)(C)Cc3ccccc32)cc1` (stereo unspecified) belongs 794 s; to `CCn1cc(C(=O)O)c(=O)c2ccc(Cc3ccccc3)nc21`, 1010 s; to `C[C@H]1CNCCc2ccc(Cl)cc21`, 652 s.
Turning to `Cc1ccc(C)c(-c2cc3c4nn(CC(=O)N(C)c5ccccc5)c(=O)n4ccn3n2)c1`, the RP-LC retention time is 1010 s.
On to `CCc1noc(-c2cnc3nc(C)ccc3c2NCc2ccccc2C)n1`, for which the RP-LC retention time is 784 s.
On to `CCN1C(=O)C(C(=O)Nc2cccc(C)c2)C2CC1(C)Oc1ccccc12` (stereo unspecified), for which the RP-LC retention time turned out to be 1060 s.
`Cc1ccc(-c2nc3cccc(C)n3c2Nc2ccccc2C)cc1`: the RP-LC retention time was 797 s.
`CCOc1ccc(-c2[nH]ncc2CNS(=O)(=O)Cc2ccccc2Cl)cc1` came in with an RP-LC retention time of 846 s.
`CCOC(=O)C1=C(C)NC2=C(C(=O)C(C(=O)OC)C(C)C2)C1c1cccc(OCC)c1` (stereo unspecified) came in with an RP-LC retention time of 908 s.
Take `O=C(CCc1csc(NC(=O)c2ccc(=O)[nH]c2)n1)NCc1ccccn1`: the RP-LC retention time stood at 542 s.
To `Cc1ccc(NC(=O)CSc2cc(N3CCCCC3)ncn2)cc1Cl` belongs 1050 s; to `O=C(c1cccs1)N1CCc2ccc(NS(=O)(=O)c3ccccc3Cl)cc2C1`, 804 s; to `CC(C)c1c(C2CCN(C(=O)NCc3ccccc3)CC2)noc1N`, 741 s.
In the case of `CCc1onc(C)c1C1CCCN1C(=O)c1c(OC)cccc1OC` (stereo unspecified), the RP-LC retention time stood at 898 s.
As for `CCn1nnc(NCc2ccc(-c3ccc(Cl)cc3Cl)o2)n1`, the RP-LC retention time was 1130 s.
Turning to `COC(=O)c1ncn2c1C(=O)N(c1cc(C)ccc1C)C(C)(C(=O)NC1CCCC1)C2` (stereo unspecified), the RP-LC retention time was determined as 718 s.
As for `CC(=O)N1C[C@@H](C(=O)NCCc2cccs2)[C@H](c2nc(C)no2)C1`, the RP-LC retention time was determined as 652 s.
To `O=C(CCc1nc(CSc2nnc(-c3ccccc3)o2)no1)Nc1nccs1` belongs 766 s; to `O=C(Nc1nc2ccccc2n1CCN1CCOCC1)c1ccc(Cl)cc1`, 633 s.
As for `CS(=O)(=O)N(C1CCOCC1)C1CN(C(=O)Nc2ccc(F)cc2F)C1`, the RP-LC retention time was determined as 664 s.
Take `C=CCn1c(=O)c2ccccc2n(Cc2nc(-c3ccccc3OC)no2)c1=O`: the RP-LC retention time worked out at 940 s.
To `Cc1cccc(C)c1OCC(N)C(C)C` (stereo unspecified) belongs 728 s.
In turn, `COc1ccc(OC)c(CNC(=O)c2c(C)oc3c2C2=NCCN2C=N3)c1` gave an RP-LC retention time of 638 s.
`COc1ccc(OCc2ccc(-c3nc(C#N)c(NCCN(C)C)o3)o2)cc1` displayed an RP-LC retention time of 676 s.
To `COC(=O)C1=C(N)Oc2cc(C)n(CCN(C)C)c(=O)c2C1c1ccccc1F` (stereo unspecified) belongs 616 s; to `Cn1ccc2ccn(CC(=O)NCc3ccc(Cl)cc3)c(=O)c21`, 768 s; to `CCC(C)NC(=O)CCC(=O)N1CCc2c(c(C(=O)N3CCCC3)nn2C)C1` (stereo unspecified), 617 s.
For `CCCn1nc(CNC(=O)c2sc(C)nc2C)c2ccccc21`, the RP-LC retention time was 776 s.
To `FC1(c2nc(-c3ccccc3)no2)CCN(C2CCOCC2)CC1` belongs 636 s.
`COCCN1C(=O)CCC2(C(=O)NCCc3ccncc3)CCCC=C12` (stereo unspecified) showed an RP-LC retention time of 542 s.
With `Cn1c(=O)c2cc(C(=O)NCc3cccc(C(F)(F)F)c3)nn2c2ccccc21`, the RP-LC retention time amounted to 945 s.
On to `COCCn1cc(C(=O)Nc2ccccc2F)c2nn(-c3ccccc3)c(=O)c-2c1`, for which the RP-LC retention time was 880 s.
On to `Cc1nn(-c2ccc(F)cc2)c2sc(C(=O)NCCc3ccco3)cc12`, for which the RP-LC retention time turned out to be 1060 s.
`CC1CCCCN1CCNC(=O)c1cc2c(s1)N(C)CCCC2` (stereo unspecified) displayed an RP-LC retention time of 672 s.
To `COc1ccc(NC(=O)NCC(c2cccnc2)c2cn(C)c3ccccc23)cc1` (stereo unspecified) belongs 678 s; to `COc1ccc(OC)c(NC(=O)C2(c3cccs3)CCOCC2)c1`, 917 s; to `CNC(=O)c1cc(N2CCN(C)CC2)nc2c(C)cccc12`, 601 s.
In turn, `CCN1C(=O)c2ccccc2Oc2ccc(C(=O)N3CCN(c4cc(C)ccc4C)CC3)cc21` gave an RP-LC retention time of 1190 s.
As to `COc1ccccc1NC(=O)Cn1nc2cc(C)nc(-c3ccc(F)cc3)n2c1=O`, the RP-LC retention time was 851 s.
Take `COC(=O)N1CCC(c2ccc(OC)cc2)C1` (stereo unspecified): the RP-LC retention time was 758 s.
Consider `CC1=C(c2ccccc2)C=NNCC1=O`, for which the RP-LC retention time turned out to be 733 s.
`Cc1cc(C)n(-c2ccc(C(=O)NCc3ccc(F)cc3F)cn2)n1` returned an RP-LC retention time of 929 s.
Compound `Cc1ccc(C(=O)N2CCN(c3nnc4ccc(C(F)(F)F)cn34)CC2)s1` returned an RP-LC retention time of 762 s.
On to `CC(C)c1nnc2ccc(N3CCCC3)nn12`, for which the RP-LC retention time stood at 819 s.
To `CCS(=O)(=O)c1nc2ccc(NS(=O)(=O)c3cc(Cl)ccc3OC)cc2s1` belongs 914 s; to `COCCN1CCn2cc(S(=O)(=O)Nc3ccc(OC)cc3)cc2C1=O`, 662 s.
To `CCn1cc(C2=CCN(C(=O)NCc3ccc(C)cc3)CC2)c2cccnc21` belongs 873 s; to `O=C(CC1CSc2ccccc2NC1=O)NC1CCCCCC1` (stereo unspecified), 822 s; to `COC(=O)C1=CN(C)c2cc(N3CCC(Cc4ccccc4)CC3)c(F)cc2S1(=O)=O`, 1100 s.
For `CCN1CCCC1CNC(=O)C1c2cc(OC)c(OC)cc2C(=O)N(C)C1c1ccc(OC)cc1` (stereo unspecified), the RP-LC retention time amounted to 611 s.
As to `Cc1noc(-c2nc(-c3ccc(Cl)cc3)no2)n1`, the RP-LC retention time stood at 1070 s.
